Target: soluble guanylate cyclase (sGC) (Homo sapiens (Human), UniProt Q02108+Q02153)
Experiment: sGC-HEK-cGMP assay, new protocol with DETA-NONOate, LC/MS detection (Example 2C)
Format: cell-based
Settings: read-out: Absolute EC50 (uM) - binned

Sequence of soluble guanylate cyclase (sGC) (Q02153 whole entry): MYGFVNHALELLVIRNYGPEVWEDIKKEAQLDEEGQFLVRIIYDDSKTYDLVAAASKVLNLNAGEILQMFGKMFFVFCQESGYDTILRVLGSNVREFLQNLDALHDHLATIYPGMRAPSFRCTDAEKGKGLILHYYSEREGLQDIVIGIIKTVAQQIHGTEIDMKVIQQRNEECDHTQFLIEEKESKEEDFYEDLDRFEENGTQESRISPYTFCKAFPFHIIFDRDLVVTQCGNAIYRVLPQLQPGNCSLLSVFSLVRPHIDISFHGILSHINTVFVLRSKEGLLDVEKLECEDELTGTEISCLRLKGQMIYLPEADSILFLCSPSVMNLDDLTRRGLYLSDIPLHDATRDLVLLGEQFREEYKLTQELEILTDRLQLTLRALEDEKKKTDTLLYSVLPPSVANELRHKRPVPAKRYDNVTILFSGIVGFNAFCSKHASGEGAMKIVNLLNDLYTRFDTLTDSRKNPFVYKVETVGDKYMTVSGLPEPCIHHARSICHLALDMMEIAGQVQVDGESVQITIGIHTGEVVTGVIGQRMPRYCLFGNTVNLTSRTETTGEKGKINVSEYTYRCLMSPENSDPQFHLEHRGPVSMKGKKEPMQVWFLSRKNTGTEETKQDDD
Sequence of soluble guanylate cyclase (sGC) (Q02108 whole entry): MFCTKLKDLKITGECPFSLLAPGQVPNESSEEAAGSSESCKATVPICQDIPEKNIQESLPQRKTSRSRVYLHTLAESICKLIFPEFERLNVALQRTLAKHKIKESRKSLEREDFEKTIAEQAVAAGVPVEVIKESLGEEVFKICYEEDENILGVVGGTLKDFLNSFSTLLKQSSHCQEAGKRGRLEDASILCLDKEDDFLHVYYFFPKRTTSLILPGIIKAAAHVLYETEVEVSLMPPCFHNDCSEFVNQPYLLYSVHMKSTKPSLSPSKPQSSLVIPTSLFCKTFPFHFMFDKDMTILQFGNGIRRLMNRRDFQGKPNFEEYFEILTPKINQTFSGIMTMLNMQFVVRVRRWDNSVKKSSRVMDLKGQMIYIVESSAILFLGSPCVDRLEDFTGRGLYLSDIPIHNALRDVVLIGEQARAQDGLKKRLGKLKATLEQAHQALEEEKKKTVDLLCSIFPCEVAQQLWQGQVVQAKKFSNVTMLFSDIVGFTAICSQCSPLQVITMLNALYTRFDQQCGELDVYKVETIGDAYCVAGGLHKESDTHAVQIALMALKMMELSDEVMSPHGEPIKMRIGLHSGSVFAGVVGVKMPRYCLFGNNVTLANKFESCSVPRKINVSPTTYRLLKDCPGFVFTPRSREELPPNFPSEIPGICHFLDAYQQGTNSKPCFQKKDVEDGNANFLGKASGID

Compound: O=C(O)c1cc(-c2ncc(F)c(NCC(O)(C(F)(F)F)C(F)(F)F)n2)nn1Cc1ccccc1F [Compound I-476]
- EC50: > 1 µM

Compound: O=C(Nc1nc(-c2cc(-c3ccon3)n(Cc3ccccc3F)n2)ncc1F)N1CCOCC1 [Compound I-477]
- EC50: > 1 µM

Compound: O=C(Nc1ccnc(-c2cc(-c3ccon3)n(Cc3ccccc3F)n2)n1)C1(O)CC1 [Compound I-478]
- EC50: < 0.1 µM

Compound: COCCS(=O)(=O)Nc1ccnc(-c2cc(-c3ccon3)n(Cc3ccccc3F)n2)n1 [Compound I-479]
- EC50: 0.101 to 1 µM

Compound: CN(CC1(C(=O)O)CC1)c1nc(-c2cc(C#N)n(Cc3ccccc3F)n2)ncc1F [Compound I-480]
- EC50: 0.101 to 1 µM

Compound: CN(CC1(C(=O)O)CC1)c1nc(-c2cc(C(N)=O)n(Cc3ccccc3F)n2)ncc1F [Compound I-481]
- EC50: > 1 µM

Compound: O=C1OC(C(F)(F)F)CN1c1ccnc(-c2cc(-c3ccon3)n(Cc3ccccc3F)n2)n1 (centres unmarked) [Compound I-482]
- EC50: > 1 µM

Compound: O=[N+]([O-])c1cnc(-c2cc(-c3ccon3)n(Cc3ccccc3F)n2)nc1NCC(O)(C(F)(F)F)C(F)(F)F [Compound I-483]
- EC50: > 1 µM

Compound: Nc1cnc(-c2cc(-c3ccon3)n(Cc3ccccc3F)n2)nc1NCC(O)(C(F)(F)F)C(F)(F)F [Compound I-484]
- EC50: 0.101 to 1 µM

Compound: O=C1CC(Nc2nc(-c3cc(-c4ccon4)n(Cc4ccccc4F)n3)ncc2F)CN1 (centres unmarked) [Compound I-485]
- EC50: < 0.1 µM

Compound: NS(=O)(=O)CCCC(=O)Nc1ccnc(-c2cc(-c3ccon3)n(Cc3ccccc3F)n2)n1 [Compound I-486]
- EC50: > 1 µM

Compound: CS(=O)(=O)CCNc1nc(-c2cc(-c3ccon3)n(Cc3ccccc3F)n2)ncc1F [Compound I-487]
- EC50: < 0.1 µM

Compound: OC(CNc1nc(-c2cc(-c3ccon3)n(Cc3cccc(F)c3F)n2)ncc1F)(C(F)(F)F)C(F)(F)F [Compound I-488]
- EC50: 0.101 to 1 µM

Compound: O=C(O)C(O)(CNc1nc(-c2cc(-c3ccon3)n(Cc3cccc(F)c3F)n2)ncc1F)C(F)(F)F (centres unmarked) [Compound I-489]
- EC50: > 1 µM

Compound: O=C(CC(O)(C(F)(F)F)C(F)(F)F)Nc1ccnc(-c2cc(-c3ccon3)n(Cc3ccccc3F)n2)n1 [Compound I-490]
- EC50: 0.101 to 1 µM

Compound: O=S(=O)(Cc1ccc(F)cc1)Nc1ccnc(-c2cc(-c3ccon3)n(Cc3ccccc3F)n2)n1 [Compound I-491]
- EC50: 0.101 to 1 µM

Compound: O=C1Nc2nc(-c3cc(-c4ccon4)n(Cc4ccccc4F)n3)ncc2OC1(C(F)(F)F)C(F)(F)F [Compound I-492]
- EC50: 0.101 to 1 µM

Compound: O=C(NC1CC1)C(Nc1nc(-c2cc(-c3ccon3)n(Cc3ccccc3F)n2)ncc1F)C(F)(F)F (centres unmarked) [Compound I-493]
- EC50: 0.101 to 1 µM

Compound: CC1(C)CCN(c2ccnc(-c3cc(-c4ccon4)n(Cc4ccccc4F)n3)n2)C1=O [Compound I-494]
- EC50: 0.101 to 1 µM

Compound: [2H]C([2H])(O)C([2H])([2H])Nc1nc(-c2cc(-c3ccon3)n(Cc3ccccc3F)n2)ncc1F [Compound I-495]
- EC50: < 0.1 µM

Compound: Cc1nnc(CNc2nc(-c3cc(-c4ccon4)n(Cc4ccccc4F)n3)ncc2F)o1 [Compound I-496]
- EC50: < 0.1 µM

Compound: CC(=O)OCC(=O)Nc1ccnc(-c2cc(-c3ccon3)n(Cc3ccccc3F)n2)n1 [Compound I-497]
- EC50: 0.101 to 1 µM

Compound: CC(=O)OCC(=O)Nc1nc(-c2cc(-c3ccon3)n(Cc3ccccc3F)n2)ncc1F [Compound I-498]
- EC50: 0.101 to 1 µM

Compound: O=C(CO)Nc1ccnc(-c2cc(-c3ccon3)n(Cc3ccccc3F)n2)n1 [Compound I-499]
- EC50: > 1 µM

Compound: OC(CNc1ccnc(-c2cc(-c3ccon3)n(Cc3ccccc3F)n2)n1)(C(F)(F)F)C(F)(F)F [Compound I-500]
- EC50: 0.101 to 1 µM

Compound: O=C1CCC(C(F)(F)F)N1c1nc(-c2cc(-c3ccon3)n(Cc3ccccc3F)n2)ncc1F (centres unmarked) [Compound I-501]
- EC50: > 1 µM

Compound: OCC1(Nc2nc(-c3cc(-c4ccon4)n(Cc4ccccc4F)n3)ncc2F)CC1 [Compound I-502]
- EC50: 0.101 to 1 µM

Compound: O=S1(=O)CCCN1c1nc(-c2cc(-c3ccon3)n(Cc3ccccc3F)n2)ncc1F [Compound I-503]
- EC50: 0.101 to 1 µM

Compound: O=C1OCC(C(F)(F)F)N1c1ccnc(-c2cc(-c3ccon3)n(Cc3ccccc3F)n2)n1 (centres unmarked) [Compound I-504]
- EC50: > 1 µM

Compound: CC(C)S(=O)(=O)Nc1nc(-c2cc(-c3ccon3)n(Cc3ccccc3F)n2)ncc1F [Compound I-505]
- EC50: 0.101 to 1 µM

Compound: Oc1nc(-c2cc(-c3ccon3)n(CCC(F)(F)F)n2)ncc1F [Compound I-507]
- EC50: > 1 µM

Compound: CC(C)C(Nc1nc(-c2cc(-c3ccon3)n(Cc3ccccc3F)n2)ncc1F)C(=O)NC1CC1 (centres unmarked) [Compound I-508]
- EC50: < 0.1 µM

Compound: Fc1ccccc1Cn1nc(-c2ncc(F)c(NCCSC(F)(F)F)n2)cc1-c1ccon1 [Compound I-509]
- EC50: < 0.1 µM

Compound: COC(=O)CS(=O)(=O)Nc1ccnc(-c2cc(-c3ccon3)n(Cc3ccccc3F)n2)n1 [Compound I-510]
- EC50: 0.101 to 1 µM

Compound: NC(=O)CNc1nc(-c2cc(-c3ccon3)n(CCC(F)(F)F)n2)ncc1F [Compound I-511]
- EC50: > 1 µM

Compound: CC1(C)CCC(=O)N1c1nc(-c2cc(-c3ccon3)n(Cc3ccccc3F)n2)ncc1F [Compound I-512]
- EC50: > 1 µM

Compound: Nc1nc(-c2cc(-c3ccon3)n(CCC(F)(F)F)n2)ncc1F [Compound I-513]
- EC50: > 1 µM

Compound: O=S(=O)(CCNc1nc(-c2cc(-c3ccon3)n(Cc3ccccc3F)n2)ncc1F)C(F)(F)F [Compound I-514]
- EC50: < 0.1 µM

Compound: NC(=O)C1(CNc2nc(-c3cc(-c4ccon4)n(Cc4ccccc4F)n3)ncc2F)CC1 [Compound I-515]
- EC50: < 0.1 µM

Compound: OC(CNc1nc(-c2cc(-c3ccon3)n(CCC(F)(F)F)n2)ncc1F)(C(F)(F)F)C(F)(F)F [Compound I-516]
- EC50: > 1 µM

Compound: CCN(CC)c1nc(-c2cc(-c3ccon3)n(CCC(F)(F)F)n2)ncc1F [Compound I-517]
- EC50: > 1 µM

Compound: NC(CNc1nc(-c2cc(-c3ccon3)n(Cc3ccccc3F)n2)ncc1F)C(F)(F)F (centres unmarked) [Compound I-518]
- EC50: < 0.1 µM

Compound: CC(C)(C)OC(=O)NCC(=O)Nc1ccnc(-c2cc(-c3ccon3)n(Cc3ccccc3F)n2)n1 [Compound I-519]
- EC50: 0.101 to 1 µM

Compound: NCC(=O)Nc1ccnc(-c2cc(-c3ccon3)n(Cc3ccccc3F)n2)n1 [Compound I-520]
- EC50: 0.101 to 1 µM

Compound: OCC(F)(F)CNc1nc(-c2cc(-c3ccon3)n(Cc3ccccc3F)n2)ncc1F [Compound I-521]
- EC50: < 0.1 µM

Compound: NC(=O)C(O)(CNc1nc(-c2cc(-c3ccon3)n(Cc3cccc(F)c3F)n2)ncc1F)C(F)(F)F (centres unmarked) [Compound I-522]
- EC50: < 0.1 µM

Compound: CN(CC1(C(=O)O)CC1)c1nc(-c2cc(-c3ccon3)n(CCC(F)(F)F)n2)ncc1F [Compound I-523]
- EC50: > 1 µM

Compound: CC(=O)Nc1ccnc(-c2cc(-c3ccon3)n(Cc3ccccc3F)n2)n1 [Compound I-524]
- EC50: > 1 µM

Compound: O=C(Nc1ccnc(-c2cc(-c3ccon3)n(Cc3ccccc3F)n2)n1)C1(OCc2ccccc2)CCOCC1 [Compound I-525]
- EC50: > 1 µM

Compound: CC1(S(C)(=O)=O)CCN(c2nc(-c3cc(-c4ccon4)n(Cc4ccccc4F)n3)ncc2F)C1=O (centres unmarked) [Compound I-526]
- EC50: > 1 µM

Compound: CC(CCO)(C(=O)Nc1nc(-c2cc(-c3ccon3)n(Cc3ccccc3F)n2)ncc1F)S(C)(=O)=O (centres unmarked) [Compound I-527]
- EC50: 0.101 to 1 µM

Compound: COCC(=O)Nc1ccnc(-c2cc(-c3ccon3)n(Cc3ccccc3F)n2)n1 [Compound I-528]
- EC50: > 1 µM

Compound: CN(CC(O)(C(F)(F)F)C(F)(F)F)c1nc(-c2cc(-c3ccon3)n(Cc3ccccc3F)n2)ncc1F [Compound I-529]
- EC50: > 1 µM

Compound: NC(=O)[C@@](O)(CNc1nc(-c2cc(-c3ccon3)n(Cc3ccccc3F)n2)ncc1F)C(F)(F)F [Compound I-530]
- EC50: 0.101 to 1 µM

Compound: NC(=O)[C@](O)(CNc1nc(-c2cc(-c3ccon3)n(Cc3ccccc3F)n2)ncc1F)C(F)(F)F [Compound I-531]
- EC50: < 0.1 µM

Compound: O=C(Nc1ccnc(-c2cc(-c3ccon3)n(Cc3ccccc3F)n2)n1)c1cocn1 [Compound I-532]
- EC50: > 1 µM

Compound: O=C1CCC(=O)N1c1nc(-c2cc(-c3ccon3)n(Cc3ccccc3F)n2)ncc1F [Compound I-533]
- EC50: 0.101 to 1 µM

Compound: NC(=O)C1CCC(=O)N1c1nc(-c2cc(-c3ccon3)n(Cc3ccccc3F)n2)ncc1F (centres unmarked) [Compound I-534]
- EC50: > 1 µM

Compound: CC(=O)NCC(=O)Nc1ccnc(-c2cc(-c3ccon3)n(Cc3ccccc3F)n2)n1 [Compound I-535]
- EC50: 0.101 to 1 µM

Compound: CC(C)[C@@H](Nc1nc(-c2cc(-c3ccon3)n(Cc3ccccc3F)n2)ncc1F)C(N)=O [Compound I-536]
- EC50: < 0.1 µM

Compound: CC(C)[C@H](Nc1nc(-c2cc(-c3ccon3)n(Cc3ccccc3F)n2)ncc1F)C(N)=O [Compound I-537]
- EC50: < 0.1 µM

Compound: NC(=O)C1(Nc2nc(-c3cc(-c4ccon4)n(Cc4ccccc4F)n3)ncc2F)CC1 [Compound I-538]
- EC50: < 0.1 µM

Compound: O=S(=O)(CCO)Nc1ccnc(-c2cc(-c3ccon3)n(Cc3ccccc3F)n2)n1 [Compound I-539]
- EC50: > 1 µM

Compound: NC(=O)C(Nc1nc(-c2cc(-c3ccon3)n(Cc3ccccc3F)n2)ncc1F)C(F)(F)F (centres unmarked) [Compound I-540]
- EC50: 0.101 to 1 µM

Compound: COC(=O)Nc1nc(-c2cc(-c3ccon3)n(Cc3ccccc3F)n2)ncc1[N+](=O)[O-] [Compound I-541]
- EC50: > 1 µM

Compound: COC(=O)Nc1nc(-c2cc(-c3ccon3)n(Cc3ccccc3F)n2)ncc1N [Compound I-542]
- EC50: 0.101 to 1 µM

Compound: CS(=O)(=O)NCC(=O)Nc1ccnc(-c2cc(-c3ccon3)n(Cc3ccccc3F)n2)n1 [Compound I-543]
- EC50: 0.101 to 1 µM

Compound: CS(=O)(=O)NCCC(Nc1nc(-c2cc(-c3ccon3)n(Cc3ccccc3F)n2)ncc1F)C(F)(F)F (centres unmarked) [Compound I-544]
- EC50: < 0.1 µM

Compound: CS(=O)(=O)C1(CNc2nc(-c3cc(-c4ccon4)n(Cc4ccccc4F)n3)ncc2F)CC1 [Compound I-545]
- EC50: < 0.1 µM

Compound: CS(=O)(=O)NC(=O)CNc1nc(-c2cc(-c3ccon3)n(Cc3ccccc3F)n2)ncc1F [Compound I-546]
- EC50: > 1 µM

Compound: COCCC(=O)Nc1ccnc(-c2cc(-c3ccon3)n(Cc3ccccc3F)n2)n1 [Compound I-547]
- EC50: 0.101 to 1 µM

Compound: Cc1ccc(S(=O)(=O)NC(C)C(=O)Nc2ccnc(-c3cc(-c4ccon4)n(Cc4ccccc4F)n3)n2)cc1 (centres unmarked) [Compound I-548]
- EC50: > 1 µM

Compound: O=C(Nc1ccnc(-c2cc(-c3ccon3)n(Cc3ccccc3F)n2)n1)c1cscn1 [Compound I-549]
- EC50: > 1 µM

Compound: O=C(Nc1ccnc(-c2cc(-c3ccon3)n(Cc3ccccc3F)n2)n1)c1ccc[nH]1 [Compound I-550]
- EC50: > 1 µM

Source: patent US10183021B2, “sGC stimulators” (Ironwood Pharmaceuticals, Inc., priority 2013, dated 2019)
